Among the data in patent US10040781B2, “Tank-binding kinase inhibitor compounds” (Gilead Sciences, Inc., priority 2014, dated 2018) are IC50 values, retold here.

In one experiment the target is IKKε (Homo sapiens (Human), UniProt Q14164). In words: IKKε TR-FRET enzymatic assay. The class given is biochemical. To be noted: TR-FRET, 2×Km ATP; geometric mean of minimum four determinations; read-out: IKKe IC50. For orientation: In TR-FRET formats the signal depends on donor and acceptor labels being close together.
IKKε, sequence (Q14164 whole entry): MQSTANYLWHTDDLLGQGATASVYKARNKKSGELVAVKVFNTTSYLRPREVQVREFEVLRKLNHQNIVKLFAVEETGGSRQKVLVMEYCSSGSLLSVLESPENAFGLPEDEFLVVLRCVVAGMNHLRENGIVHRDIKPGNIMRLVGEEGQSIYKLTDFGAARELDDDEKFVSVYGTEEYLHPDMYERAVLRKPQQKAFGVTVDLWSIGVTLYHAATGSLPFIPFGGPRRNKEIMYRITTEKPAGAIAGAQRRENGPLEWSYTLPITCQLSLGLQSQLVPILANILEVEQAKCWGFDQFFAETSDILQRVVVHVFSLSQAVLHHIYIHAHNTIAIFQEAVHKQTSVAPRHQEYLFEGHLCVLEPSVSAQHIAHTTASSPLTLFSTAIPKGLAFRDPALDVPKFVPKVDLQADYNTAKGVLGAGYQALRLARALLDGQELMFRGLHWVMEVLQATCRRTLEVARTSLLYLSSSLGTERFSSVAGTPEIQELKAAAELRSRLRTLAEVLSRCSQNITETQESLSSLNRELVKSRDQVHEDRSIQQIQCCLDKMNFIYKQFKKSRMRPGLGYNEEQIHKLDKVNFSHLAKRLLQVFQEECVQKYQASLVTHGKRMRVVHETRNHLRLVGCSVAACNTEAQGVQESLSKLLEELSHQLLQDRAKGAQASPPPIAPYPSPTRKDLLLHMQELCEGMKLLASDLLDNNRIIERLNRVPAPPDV
A further experiment deals with hJAK2 (Homo sapiens (Human), UniProt O60674). In words: hJAK2 LANCE TR-FRET enzymatic assay. In kind it is biochemical. As to conditions: read-out: JAK2 IC50.
hJAK2, sequence (O60674 whole entry): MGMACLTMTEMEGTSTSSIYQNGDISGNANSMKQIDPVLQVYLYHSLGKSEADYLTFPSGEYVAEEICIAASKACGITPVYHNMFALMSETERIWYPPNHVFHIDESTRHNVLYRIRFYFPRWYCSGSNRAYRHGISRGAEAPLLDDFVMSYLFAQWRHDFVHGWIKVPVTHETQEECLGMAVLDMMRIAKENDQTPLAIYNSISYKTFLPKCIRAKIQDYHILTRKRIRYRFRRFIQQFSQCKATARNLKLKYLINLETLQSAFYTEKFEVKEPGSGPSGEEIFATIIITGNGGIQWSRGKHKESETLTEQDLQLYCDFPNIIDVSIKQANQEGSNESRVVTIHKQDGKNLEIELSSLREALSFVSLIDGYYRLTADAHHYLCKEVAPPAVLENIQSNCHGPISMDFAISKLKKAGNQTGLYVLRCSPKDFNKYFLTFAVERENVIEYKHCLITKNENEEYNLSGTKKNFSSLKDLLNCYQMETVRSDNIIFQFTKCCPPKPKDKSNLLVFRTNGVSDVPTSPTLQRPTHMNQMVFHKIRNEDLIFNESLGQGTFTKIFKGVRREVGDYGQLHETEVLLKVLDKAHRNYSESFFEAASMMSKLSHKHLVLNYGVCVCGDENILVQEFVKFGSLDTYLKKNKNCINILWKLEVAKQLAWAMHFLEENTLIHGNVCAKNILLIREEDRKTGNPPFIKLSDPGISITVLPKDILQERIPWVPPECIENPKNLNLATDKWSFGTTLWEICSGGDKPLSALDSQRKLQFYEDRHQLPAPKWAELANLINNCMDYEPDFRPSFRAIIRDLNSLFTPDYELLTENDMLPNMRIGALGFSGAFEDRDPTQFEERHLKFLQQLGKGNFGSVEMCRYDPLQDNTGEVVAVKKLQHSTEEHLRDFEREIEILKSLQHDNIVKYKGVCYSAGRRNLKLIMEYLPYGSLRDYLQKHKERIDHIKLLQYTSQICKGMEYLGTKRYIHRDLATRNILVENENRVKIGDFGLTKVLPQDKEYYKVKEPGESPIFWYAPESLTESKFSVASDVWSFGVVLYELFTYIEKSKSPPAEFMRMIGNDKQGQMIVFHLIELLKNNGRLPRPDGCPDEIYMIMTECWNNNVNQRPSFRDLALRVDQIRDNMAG
A further experiment concerns the target TBK1 (Homo sapiens (Human), UniProt Q9UHD2). The experiment is described as follows: TBK1 TR-FRET enzymatic assay.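 Note: phosphorylation of a biotinylated Ser/Thr peptide by purified full-length recombinant TBK1, read by TR-FRET after 240 min at 25 °C, IC50 is the geometric mean of at least four runs.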

TBK1, sequence (Q9UHD2 whole entry): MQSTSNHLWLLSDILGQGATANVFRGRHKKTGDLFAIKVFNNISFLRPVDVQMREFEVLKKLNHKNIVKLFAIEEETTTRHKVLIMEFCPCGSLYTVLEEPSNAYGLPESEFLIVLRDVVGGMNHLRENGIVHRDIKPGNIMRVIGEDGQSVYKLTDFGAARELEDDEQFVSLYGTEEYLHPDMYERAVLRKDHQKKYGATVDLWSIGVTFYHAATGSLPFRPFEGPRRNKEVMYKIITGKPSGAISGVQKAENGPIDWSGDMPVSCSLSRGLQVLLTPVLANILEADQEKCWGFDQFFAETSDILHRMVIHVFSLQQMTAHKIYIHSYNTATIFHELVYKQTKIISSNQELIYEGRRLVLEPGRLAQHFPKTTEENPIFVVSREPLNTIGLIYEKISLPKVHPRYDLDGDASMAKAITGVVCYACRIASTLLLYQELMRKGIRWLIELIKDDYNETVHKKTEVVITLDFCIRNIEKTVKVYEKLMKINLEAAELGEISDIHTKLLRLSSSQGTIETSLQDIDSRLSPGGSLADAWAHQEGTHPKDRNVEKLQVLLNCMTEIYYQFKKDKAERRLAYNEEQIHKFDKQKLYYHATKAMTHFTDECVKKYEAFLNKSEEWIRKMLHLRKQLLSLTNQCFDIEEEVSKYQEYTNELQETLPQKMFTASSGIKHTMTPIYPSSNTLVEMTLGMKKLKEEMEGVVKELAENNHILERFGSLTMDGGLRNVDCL

One may read the IC50 as the concentration that gives 50% inhibition. As for `N#Cc1cc(-c2ncnc(Nc3ccc(N4CCOCC4)cc3F)n2)ccc1O[C@H]1CCN(C(=O)[C@@H](O)CO)C[C@H]1F` [Example 556, 2-(((3R,4S)-1-((S)-2,3-dihydroxypropanoyl)-3-fluoropiperidin-4-yl)oxy)-5-(4-((2-fluoro-4-morpholinophenyl)amino)-1,3,5-triazin-2-yl)benzonitrile], the IC50 on IKKε was 5 nM; at hJAK2, at least 1000 nM; against TBK1 it was 3 nM.
On the same counts, the results for `COCC(O)C(=O)N1CC[C@H](Oc2ccc(-c3ncnc(Nc4ccc(N5CCN(C6COC6)CC5)cc4)n3)cc2C#N)[C@H](F)C1` (stereo partly drawn) [Example 557, 2-(((3R,4S)-3-fluoro-1-(2-hydroxy-3-methoxypropanoyl)piperidin-4-yl)oxy)-5-(4-((4-(4-(oxetan-3-yl)piperazin-1-yl)phenyl)amino)-1,3,5-triazin-2-yl)benzonitrile] are 4 nM, 917 nM and 6 nM.
Regarding `N#Cc1cc(-c2ncnc(Nc3ccc(N4CCN(C5COC5)CC4)cc3)n2)ccc1O[C@H]1CCN(C(=O)c2cnc(N)[nH]2)C[C@H]1F` [Example 559, 2-(((3R,4S)-1-(2-amino-1H-imidazole-5-carbonyl)-3-fluoropiperidin-4-yl)oxy)-5-(4-((4-(4-(oxetan-3-yl)piperazin-1-yl)phenyl)amino)-1,3,5-triazin-2-yl)benzonitrile], the IC50 at IKKε was 2 nM; at hJAK2, 83 nM; on TBK1, 5 nM.
For `COc1cc(Nc2ncnc(-c3ccc(O[C@H]4CCN(C(=O)CO)CC4(F)F)c(C#N)c3)n2)ccc1N1CCN(C2COC2)CC1` [Example 560, (S)-2-((3,3-difluoro-1-(2-hydroxyacetyl)piperidin-4-yl)oxy)-5-(4-((3-methoxy-4-(4-(oxetan-3-yl)piperazin-1-yl)phenyl)amino)-1,3,5-triazin-2-yl)benzonitrile], the results for the IC50 on IKKε, at hJAK2 and against TBK1 were 1 nM, 18 nM and 2 nM, respectively.
On the same counts, the results for `COc1cc(Nc2ncnc(-c3ccc(O[C@H]4CCN(C(=O)[C@H](C)O)CC4(F)F)c(C#N)c3)n2)ccc1N1CCN(C2COC2)CC1` [Example 561, 2-(((S)-3,3-difluoro-1-((S)-2-hydroxypropanoyl)piperidin-4-yl)oxy)-5-(4-((3-methoxy-4-(4-(oxetan-3-yl)piperazin-1-yl)phenyl)amino)-1,3,5-triazin-2-yl)benzonitrile] are 1 nM, 68 nM and 2 nM.
Taken in the same sequence, the figures for `COc1cc(Nc2ncnc(-c3ccc(O[C@H]4CCN(C(=O)CCO)C[C@H]4F)c(C#N)c3)n2)ccc1N1CCN(C2COC2)CC1` [Example 562, 2-(((3R,4S)-3-fluoro-1-(3-hydroxypropanoyl)piperidin-4-yl)oxy)-5-(4-((3-methoxy-4-(4-(oxetan-3-yl)piperazin-1-yl)phenyl)amino)-1,3,5-triazin-2-yl)benzonitrile] were 6 nM, 110 nM and 3 nM.
Taken in the same sequence, the figures for `Cc1ncsc1Nc1ncnc(-c2ccc(O[C@H]3CCN(C(=O)CO)C[C@H]3F)c(C#N)c2)n1` [Example 563, 2-(((3R,4S)-3-fluoro-1-(2-hydroxyacetyl)piperidin-4-yl)oxy)-5-(4-((4-methylthiazol-5-yl)amino)-1,3,5-triazin-2-yl)benzonitrile] were 3 nM, at least 1000 nM and 5 nM.
`C[C@H](O)C(=O)N1CC[C@H](Oc2ccc(-c3ncnc(Nc4cn(C)nc4CO)n3)cc2C#N)[C@H](F)C1` [Example 564, 2-(((3R,4S)-3-fluoro-1-((S)-2-hydroxyproanoyl)piperidin-4-yl)oxy)-5-(4-((3-(hydroxymethyl)-1-methyl-1H-pyrazol-4-yl)amino)-1,3,5-triazin-2-yl)benzonitrile]: the IC50 at IKKε is 109 nM; on hJAK2, at least 1000 nM; against TBK1, 92 nM.
As for `C[C@H](O)C(=O)N1CC[C@H](Oc2ccc(-c3ncnc(Nc4cnn(C)c4CO)n3)cc2C#N)[C@H](F)C1` [Example 565, 2-(((3R,4S)-3-fluoro-1-((S)-2-hydroxypropanoyl)piperidin-4-yl)oxy)-5-(4-((5-(hydroxymethyl)-1-methyl-1H-pyrazol-4-yl)amino)-1,3,5-triazin-2-yl)benzonitrile], the concentration for half-maximal inhibition (IC50) is 126 nM on IKKε, at least 1000 nM at hJAK2 and 90 nM on TBK1.
On the same counts, the results for `Cc1c(Nc2ncnc(-c3ccc(O[C@H]4CCN(C(=O)[C@H](C)O)C[C@H]4F)c(C#N)c3)n2)cnn1C` [Example 566, 5-(4-((1,5-dimethyl-1H-pyrazol-4-yl)amino)-1,3,5-triazin-2-yl)-2-(((3R,4S)-3-fluoro-1-((S)-2-hydroxypropanoyl)piperidin-4-yl)oxy)benzonitrile] are 33 nM, at least 1000 nM and 14 nM.
On the same counts, the results for `Cc1c(Nc2ncnc(-c3ccc(O[C@H]4CCN(C(=O)[C@@H](O)CO)C[C@H]4F)c(C#N)c3)n2)cnn1C` [Example 567, 2-(((3R,4S)-1-((S)-2,3-dihydroxypropanoyl)-3-fluoropiperidin-4-yl)oxy)-5-(4-((1,5-dimethyl-1H-pyrazol-4-yl)amino)-1,3,5-triazin-2-yl)benzonitrile] are 7 nM, at least 1000 nM and 3 nM.
Taken in the same sequence, the figures for `CCn1cc(Nc2ncnc(-c3ccc(O[C@H]4CCN(C(=O)[C@H](C)O)C[C@H]4F)c(C#N)c3)n2)c(C)n1` [Example 568, 5-(4-((1-ethyl-3-methyl-1H-pyrazol-4-yl)amino)-1,3,5-triazin-2-yl)-2-(((3R,4S)-3-fluoro-1-((S)-2-hydroxypropanoyl)piperidin-4-yl)oxy)benzonitrile] were 21 nM, at least 1000 nM and 9 nM.
For the compound `CCn1cc(Nc2ncnc(-c3ccc(O[C@H]4CCN(C(=O)CO)C[C@H]4F)c(C#N)c3)n2)c(C)n1` [Example 569, 5-(4-((1-ethyl-3-methyl-1H-pyrazol-4-yl)amino)-1,3,5-triazin-2-yl)-2-(((3R,4S)-3-fluoro-1-(2-hydroxyacetyl)piperidin-4-yl)oxy)benzonitrile], the IC50 on IKKε was 6 nM; on hJAK2 it was at least 1000 nM; against TBK1 it was 4 nM.
With `Cc1ncc(Nc2ncnc(-c3ccc(O[C@H]4CCN(C(=O)[C@H](C)O)C[C@H]4F)c(C#N)c3)n2)s1` [Example 570, 2-(((3R,4S)-3-fluoro-1-((S)-2-hydroxypropanoyl)piperidin-4-yl)oxy)-5-(4-((2-methylthiazol-5-yl)amino)-1,3,5-triazin-2-yl)benzonitrile], the IC50 at IKKε was 4 nM; on hJAK2 it was at least 1000 nM; against TBK1, 3 nM.
On the same counts, the results for `Cc1nc(C)c(Nc2ncnc(-c3ccc(O[C@H]4CCN(C(=O)[C@H](C)O)C[C@H]4F)c(C#N)c3)n2)s1` [Example 571, 5-(4-((2,4-dimethylthiazol-5-yl)amino)-1,3,5-triazin-2-yl)-2-(((3R,4S)-3-fluoro-1-((S)-2-hydroxypropanoyl)piperidin-4-yl)oxy)benzonitrile] are 11 nM, at least 1000 nM and 6 nM.
Taken in the same sequence, the figures for `C[C@H](O)C(=O)N1CC[C@H](Oc2ccc(-c3ncnc(Nc4scnc4CO)n3)cc2C#N)[C@H](F)C1` [Example 572, 2-(((3R,4S)-3-fluoro-1-((S)-2-hydroxypropanoyl)piperidin-4-yl)oxy)-5-(4-((4-(hydroxymethyl)thiazol-5-yl)amino)-1,3,5-triazin-2-yl)benzonitrile] were 21 nM, at least 1000 nM and 36 nM.
On the same counts, the results for `C[C@H](O)CN1CCN(c2ccc(Nc3ncnc(-c4ccc(O[C@H]5CCN(C(=O)[C@H](C)O)C[C@H]5F)c(C#N)c4)n3)cc2)CC1` [Example 573, 2-(((3R,4S)-3-fluoro-1-((S)-2-hydroxypropanoyl)piperidin-4-yl)oxy)-5-(4-((4-(4-((S)-2-hydroxypropyl)piperazin-1-yl)phenyl)amino)-1,3,5-triazin-2-yl)benzonitrile] are 1 nM, 969 nM and 3 nM.
Regarding `CC(C)n1cc(Nc2ncnc(-c3ccc(O[C@H]4CCN(C(=O)[C@@H](O)CO)C[C@H]4F)c(C#N)c3)n2)cn1` [Example 574, 2-(((3R,4S)-1-((S)-2,3-dihydroxypropanoyl)-3-fluoropiperidin-4-yl)oxy)-5-(4-((1-isopropyl-1H-pyrazol-4-yl)amino)-1,3,5-triazin-2-yl)benzonitrile], the concentration for half-maximal inhibition (IC50) at IKKε came out at 2 nM; on hJAK2, 354 nM; at TBK1, 2 nM.
On to `N#Cc1cc(-c2ncnc(Nc3ccc(N4CCN(C5COC5)CC4)cc3)n2)ccc1O[C@H]1CCN(C(=O)C(O)CO)CC1(F)F` (stereo partly drawn) [Example 580, 2-(((4S)-1-(2,3-dihydroxypropanoyl)-3,3-difluoropiperidin-4-yl)oxy)-5-(4-((4-(4-(oxetan-3-yl)piperazin-1-yl)phenyl)amino)-1,3,5-triazin-2-yl)benzonitrile], for which the results for the half-maximal inhibitory concentration (IC50) at IKKε, at hJAK2 and at TBK1 were 1 nM, 165 nM and 2 nM, respectively.
Taken in the same sequence, the figures for `N#Cc1cc(-c2ncnc(Nc3ccc(N4CCN(C5COC5)CC4)cc3)n2)ccc1O[C@H]1CCN(C(=O)[C@@H](O)CO)CC1(F)F` [Example 581, 2-(((S)-1-((S)-2,3-dihydroxypropanoyl)-3,3-difluoropiperidin-4-yl)oxy)-5-(4-((4-(4-(oxetan-3-yl)piperazin-1-yl)phenyl)amino)-1,3,5-triazin-2-yl)benzonitrile] were 1 nM, 86 nM and 2 nM.
